Consider 36 compounds from patent US11358969B2, “Indole AHR inhibitors and uses thereof” (Ikena Oncology, Inc., priority 2017, dated 2022).

This assay concerns the target T1, AHR (UniProt P35869).
T1 construct: IC50
T1 sequence (P35869 1-848): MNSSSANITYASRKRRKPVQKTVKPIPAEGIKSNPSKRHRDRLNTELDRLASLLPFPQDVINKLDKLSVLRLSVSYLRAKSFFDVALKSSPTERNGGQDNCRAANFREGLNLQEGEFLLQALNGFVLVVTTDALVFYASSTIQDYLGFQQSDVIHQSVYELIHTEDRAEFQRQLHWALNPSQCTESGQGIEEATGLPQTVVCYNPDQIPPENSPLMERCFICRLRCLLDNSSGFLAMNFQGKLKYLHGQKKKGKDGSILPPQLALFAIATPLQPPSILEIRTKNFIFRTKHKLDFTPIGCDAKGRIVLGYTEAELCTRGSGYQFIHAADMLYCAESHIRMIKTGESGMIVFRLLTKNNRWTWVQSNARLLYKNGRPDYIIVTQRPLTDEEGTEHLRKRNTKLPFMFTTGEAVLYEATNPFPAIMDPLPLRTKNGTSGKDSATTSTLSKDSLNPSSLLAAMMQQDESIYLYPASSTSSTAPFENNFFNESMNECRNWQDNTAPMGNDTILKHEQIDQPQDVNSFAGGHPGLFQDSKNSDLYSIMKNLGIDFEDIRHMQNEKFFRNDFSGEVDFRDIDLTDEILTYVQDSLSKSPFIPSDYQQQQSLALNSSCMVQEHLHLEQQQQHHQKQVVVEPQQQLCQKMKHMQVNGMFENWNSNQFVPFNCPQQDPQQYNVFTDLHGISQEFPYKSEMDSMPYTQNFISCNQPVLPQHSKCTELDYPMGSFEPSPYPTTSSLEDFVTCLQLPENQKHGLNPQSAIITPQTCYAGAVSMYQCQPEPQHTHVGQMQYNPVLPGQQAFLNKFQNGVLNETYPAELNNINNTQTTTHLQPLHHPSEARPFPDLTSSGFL
Kind of assay: DRE-Luciferase Reporter Assay (Alternate Method) (Example 1B). It is filed as cell-based, murine or human. Conditions: cell line and AHR activating ligand not specified.

In the case of `Cc1[nH]c2ccc(F)cc2c1CCNc1nc(-c2cncc(F)c2)nc2c1ncn2C(C)C` [I-69, N-[2-(5-Fluoro-2-methyl-1H-indol-3-yl)ethyl]-2-(5-fluoro-3-pyridyl)-9-isopropyl-purin-6-amine], the IC50 (commonly the point on the concentration scale where inhibition reaches its midpoint) was less than 500 nM.

The compound `CC(C)Oc1cc(NCCc2c[nH]c3cccnc23)nc(-c2cncc(F)c2)n1` [I-104, 2-(5-Fluoro-3-pyridyl)-6-isopropoxy-N-[2-(1H-pyrrolo[3,2-b]pyridin-3-yl)ethyl]pyrimidin-4-amine] gave an IC50 of 500 to 1000 nM.

Consider `O=C(c1cnn2c(N[C@@H]3CCc4[nH]c5ccccc5c4C3)nc(-c3cncc(F)c3)nc12)N1CCOCC1` [I-262, [2-(5-Fluoro-3-pyridyl)-4-[[(3R)-2,3,4,9-tetrahydro-1H-carbazol-3-yl]amino]pyrazolo[1,5-a][1,3,5]triazin-8-yl]-morpholino-methanone], for which the IC50 is less than 500 nM.

Turning to `Fc1cncc(-c2nc(N[C@@H]3CCc4[nH]c5ccccc5c4C3)n3ccnc3n2)c1` [I-125, (3R)—N-[2-(5-Fluoro-3-pyridyl)imidazo[1,2-a][1,3,5]triazin-4-yl]-2,3,4,9-tetrahydro-1H-carbazol-3-amine], the IC50 was greater than 1500 nM.

`Cc1cnn2c(NCCc3ccc(O)cc3)cc(-c3cncc(F)c3)nc12` [I-213, 4-[2-[[5-(5-fluoro-3-pyridyl)-3-methyl-pyrazolo[1,5-a]pyrimidin-7-yl]amino]ethyl]phenol] registered an IC50 of less than 500 nM.

Consider `Cc1cnn2c(OCCc3c[nH]c4ccccc34)cc(-c3cncc(F)c3)nc12` [I-184], for which the concentration for half-maximal inhibition (IC50) was greater than 1500 nM.

Consider `Cc1cnn2c(NCCc3cccc(O)c3)cc(-c3cncc(F)c3)nc12` [I-210, 3-[2-[[5-(5-fluoro-3-pyridyl)-3-methyl-pyrazolo[1,5-a]pyrimidin-7-yl]amino]ethyl]phenol], for which the IC50 is 1000 to 1500 nM.

Compound `CC(C)c1cnn2c(NC3CCc4[nH]c5ccccc5c4C3)nc(N(C)C)nc12` (stereo not drawn) [I-250] had an IC50 greater than 1500 nM.

On to `CC(C)c1cnn2c(N[C@@H]3Cc4ccc(O)cc4C3)cc(-c3cncc(F)c3)nc12` [I-234, (2R)-2-[[5-(5-Fluoro-3-pyridyl)-3-isopropyl-pyrazolo[1,5-a]pyrimidin-7-yl]amino]indan-5-ol], for which the IC50 was in the range of 500 to 1000 nM.

As to `Fc1cncc(-c2nc(NCCc3c[nH]c4ccccc34)cc(N3CCNCC3)n2)c1` [I-60, 2-(5-Fluoro-3-pyridyl)-N-[2-(1H-indol-3-yl)ethyl]-6-piperazin-1-yl-pyrimidin-4-amine], the half-inhibitory concentration (IC50) lay within 500 to 1000 nM.

For `CC(C)c1cnn2c(N[C@H]3Cc4ccc(O)cc4C3)cc(-c3cncc(C#N)c3)nc12` (single isomer, unassigned) [I-37a], the IC50 was greater than 1500 nM.

For `CON(C)C(=O)c1cnn2c(N[C@@H]3CCc4[nH]c5ccccc5c4C3)cc(-c3cncc(F)c3)nc12` [I-25, 5-(5-Fluoro-3-pyridyl)-N-methoxy-N-methyl-7-[[(3R)-2,3,4,9-tetrahydro-1H-carbazol-3-yl]amino]pyrazolo[1,5-a]pyrimidine-3-carboxamide], the 50% inhibitory concentration (IC50) was greater than 1500 nM.

Consider `CC(C)c1cnn2c(N[C@H](C)Cc3ccc(O)cc3)cc(-c3cncc(F)c3)nc12` [I-97a, 4-[(2R)-2-[[5-(5-Fluoro-3-pyridyl)-3-isopropyl-pyrazolo[1,5-a]pyrimidin-7-yl]amino]propyl]phenol], for which the IC50 was greater than 1500 nM.

Turning to `Cc1c(-c2cncc(F)c2)nc2c(C)cnn2c1N[C@@H]1CCc2[nH]c3ccccc3c2C1` [I-157], the IC50 is greater than 1500 nM.

As for `CC(C)c1cnn2c(N[C@@H]3CCc4nc(N)sc4C3)nc(-c3cncc(F)c3)nc12` [I-128b, (6R)—N6-[2-(5-Fluoro-3-pyridyl)-8-isopropyl-pyrazolo[1,5-a][1,3,5]triazin-4-yl]-4,5,6,7-tetrahydro-1,3-benzothiazole-2,6-diamine], the IC50 was greater than 1500 nM.

Regarding `CC(C)c1cnn2c(NC3Cc4ccccc4C3)cc(-c3cncc(F)c3)nc12` [I-44, 5-(5-Fluoro-3-pyridyl)-N-indan-2-yl-3-isopropyl-pyrazolo[1,5-a]pyrimidin-7-amine], the IC50 was greater than 1500 nM.

`Cc1cnn2c(NC[C@@H](O)c3c[nH]c4ccccc34)cc(-c3cncc(F)c3)nc12` [I-150b, (1S)-2-[[5-(5-Fluoro-3-pyridyl)-3-methyl-pyrazolo[1,5-a]pyrimidin-7-yl]amino]-1-(1H-indol-3-yl)ethanol] yielded an IC50 of 1000 to 1500 nM.

As to `Cc1cnn2c(NCCc3cn[nH]c3)cc(-c3cncc(F)c3)nc12` [I-173], the IC50 was greater than 1500 nM.

`Fc1cncc(-c2cc(NCCc3c[nH]c4cccnc34)n3ncc(Br)c3n2)c1` [I-192, 3-Bromo-5-(5-fluoro-3-pyridyl)-N-[2-(1H-pyrrolo[3,2-b]pyridin-3-yl)ethyl]pyrazolo[1,5-a]pyrimidin-7-amine] displayed a half-maximal inhibitory concentration (IC50) of 500 to 1000 nM.

`O=C(c1cnn2c(N[C@@H]3CCc4[nH]c5ccccc5c4C3)cc(-c3cncc(F)c3)nc12)N1CCOCC1` [I-24, [5-(5-Fluoro-3-pyridyl)-7-[[(3R)-2,3,4,9-tetrahydro-1H-carbazol-3-yl]amino]pyrazolo[1,5-a]pyrimidin-3-yl]-morpholino-methanone] displayed an IC50 greater than 1500 nM.

In turn, `CC(C)c1cnn2c(NC3CCc4[nH]c5ccccc5c4C3)nc(-c3cccc(OC(F)(F)F)c3)nc12` (stereo not drawn) [I-261] yielded a 50% inhibitory concentration (IC50) greater than 1500 nM.

`CC(C)c1cnn2c(N[C@H]3Cc4[nH]c5ccccc5c4C3)nc(-c3cncc(F)c3)nc12` [I-263b, (2R)—N-[2-(5-fluoro-3-pyridyl)-8-isopropyl-pyrazolo[1,5-a][1,3,5]triazin-4-yl]-1,2,3,4-tetrahydrocyclopenta[b]indol-2-amine]: the 50% inhibitory concentration (IC50) lay in the range of 1000 to 1500 nM.

Compound `Cc1[nH]c2c(F)cc(F)cc2c1CCNc1nc(-c2cncc(F)c2)nc2c1ncn2C(C)C` [I-11, N-(2-(5,7-Difluoro-2-methyl-1H-indol-3-yl)ethyl)-2-(5-fluoropyridin-3-yl)-9-isopropyl-9H-purin-6-amine] came in with a half-maximal inhibitory concentration (IC50) of less than 500 nM.

With `O=Cc1cnn2c(NC3CCc4[nH]c5ccccc5c4C3)nc(-c3cncc(F)c3)nc12` (stereo not drawn) [I-275], the IC50 was less than 500 nM.

Compound `CC(C)c1cnn2c(N[C@@H]3CCc4[nH]c(-c5ccccc5)cc4C3)nc(-c3cncc(F)c3)nc12` [I-249b, 2-(5-Fluoro-3-pyridyl)-8-isopropyl-N-[(5R)-2-phenyl-4,5,6,7-tetrahydro-1H-indol-5-yl]pyrazolo[1,5-a][1,3,5]triazin-4-amine] returned an IC50 of less than 500 nM.

Compound `CNC(=O)c1cnn2c(NC3CCc4[nH]c5ccccc5c4C3)nc(-c3cncc(F)c3)nc12` (stereo not drawn) [I-283] registered a half-maximal inhibitory concentration (IC50) greater than 1500 nM.

Compound `Cc1cnn2c(NCCc3c[nH]c4c(O)cccc34)cc(-c3cncc(F)c3)nc12` [I-172, 3-[2-[[5-(5-Fluoro-3-pyridyl)-3-methyl-pyrazolo[1,5-a]pyrimidin-7-yl]amino]ethyl]-1H-indol-7-ol] returned an IC50 of 1000 to 1500 nM.

On to `CC(C)n1cnc2c(NCCn3c(=O)[nH]c4ccccc43)nc(-c3cncc(F)c3)nc21` [I-10, 3-[2-[[2-(5-Fluoro-3-pyridyl)-9-isopropyl-purin-6-yl]amino]ethyl]-1H-benzimidazol-2-one], for which the IC50 is greater than 1500 nM.

For `Cc1cnn2c(NCC(C)(C)c3c[nH]c4ccccc34)cc(-c3cncc(F)c3)nc12` [I-170], the IC50 is greater than 1500 nM.

Compound `CNC(=O)[C@@H](Cc1c[nH]c2ccccc12)Nc1cc(-c2cncc(F)c2)nc2c(C)cnn12` [I-189] showed an IC50 greater than 1500 nM.

`CC(C)c1cnn2c(NC3CCc4[nH]c5c(F)cccc5c4C3)cc(-c3cncc(F)c3)nc12` (stereo not drawn) [I-221]: the IC50 was greater than 1500 nM.

In turn, `Cc1[nH]c2ccccc2c1CCNc1cc(-c2cncc(F)c2)nc2c(C(C)C)cnn12` [I-89, 5-(5-fluoro-3-pyridyl)-3-isopropyl-N-[2-(2-methyl-1H-indol-3-yl)ethyl]pyrazolo[1,5-a]pyrimidin-7-amine] showed a half-inhibitory concentration (IC50) of less than 500 nM.

On to `Fc1cncc(-c2nc(N[C@H]3CCc4[nH]ccc4C3)c3ncccc3n2)c1` [I-252a, 2-(5-Fluoro-3-pyridyl)-N-[(5S)-4,5,6,7-tetrahydro-1H-indol-5-yl]pyrido[3,2-d]pyrimidin-4-amine], for which the IC50 is less than 500 nM.

With `CC(C)c1cnn2c(NCCc3c[nH]c4ccccc34)cc(-c3cccc(F)c3)nc12` [I-242, 5-(3-fluorophenyl)-N-[2-(1H-indol-3-yl)ethyl]-3-isopropyl-pyrazolo[1,5-a]pyrimidin-7-amine], the half-maximal inhibitory concentration (IC50) is less than 500 nM.

Consider `Fc1cncc(-c2nc(NCCc3c[nH]c4ccccc34)c3ncccc3n2)c1` [I-257, 2-(5-Fluoro-3-pyridyl)-N-[2-(1H-indol-3-yl)ethyl]pyrido[3,2-d]pyrimidin-4-amine], for which the IC50 is less than 500 nM.

`CC(C)c1cnn2c(N[C@@H]3CCc4[nH]c5ccccc5c4C3)nc(-c3cccc(F)c3)nc12` [I-121, (3R)—N-[2-(3-Fluorophenyl)-8-isopropyl-pyrazolo[1,5-a][1,3,5]triazin-4-yl]-2,3,4,9-tetrahydro-1H-carbazol-3-amine] gave a half-maximal inhibitory concentration (IC50) greater than 1500 nM.
